Measured values from PMC7797070 (Nucleic Acids Research, 2020).
Each block holds one compound with its values, some of them ahead of it.

Legend:
[1] = target: T1, E. coli RelA (full-length) (Escherichia coli, UniProt P0AG20); experiment: 3H-; type: biochemical; details: labelled compound; 1 mM ATP; 100 μM ppGpp or pppGpp added; 37 °C
T1 sequence (P0AG20 1-744): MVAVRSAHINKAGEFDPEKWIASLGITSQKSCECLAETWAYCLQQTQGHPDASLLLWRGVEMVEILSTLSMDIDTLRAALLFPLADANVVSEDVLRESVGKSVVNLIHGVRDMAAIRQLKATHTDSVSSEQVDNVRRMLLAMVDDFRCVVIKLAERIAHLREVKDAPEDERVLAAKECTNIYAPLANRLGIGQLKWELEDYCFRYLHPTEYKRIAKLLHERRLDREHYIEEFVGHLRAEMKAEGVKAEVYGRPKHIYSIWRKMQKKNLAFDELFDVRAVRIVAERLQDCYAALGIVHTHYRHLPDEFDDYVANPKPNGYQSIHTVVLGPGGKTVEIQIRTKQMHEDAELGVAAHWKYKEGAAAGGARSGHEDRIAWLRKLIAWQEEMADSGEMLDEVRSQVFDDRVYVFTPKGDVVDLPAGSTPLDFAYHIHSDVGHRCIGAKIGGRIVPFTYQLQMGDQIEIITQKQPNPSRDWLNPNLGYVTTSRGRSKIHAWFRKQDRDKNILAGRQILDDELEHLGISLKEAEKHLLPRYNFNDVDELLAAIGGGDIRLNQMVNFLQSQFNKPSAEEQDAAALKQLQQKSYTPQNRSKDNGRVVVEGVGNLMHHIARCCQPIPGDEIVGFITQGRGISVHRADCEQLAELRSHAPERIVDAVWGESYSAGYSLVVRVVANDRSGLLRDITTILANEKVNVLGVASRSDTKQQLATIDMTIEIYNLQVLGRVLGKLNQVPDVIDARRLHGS

[2] = target: B. subtilis Rel (full-length) (Bacillus subtilis, UniProt O54408); experiment: 3H-; type: biochemical; details: 0.3 mM labelled compound; 1 mM ATP; 5 mM Mg2+; pH 7.5, 37 °C
Chain of B. subtilis Rel (full-length) (O54408 whole entry): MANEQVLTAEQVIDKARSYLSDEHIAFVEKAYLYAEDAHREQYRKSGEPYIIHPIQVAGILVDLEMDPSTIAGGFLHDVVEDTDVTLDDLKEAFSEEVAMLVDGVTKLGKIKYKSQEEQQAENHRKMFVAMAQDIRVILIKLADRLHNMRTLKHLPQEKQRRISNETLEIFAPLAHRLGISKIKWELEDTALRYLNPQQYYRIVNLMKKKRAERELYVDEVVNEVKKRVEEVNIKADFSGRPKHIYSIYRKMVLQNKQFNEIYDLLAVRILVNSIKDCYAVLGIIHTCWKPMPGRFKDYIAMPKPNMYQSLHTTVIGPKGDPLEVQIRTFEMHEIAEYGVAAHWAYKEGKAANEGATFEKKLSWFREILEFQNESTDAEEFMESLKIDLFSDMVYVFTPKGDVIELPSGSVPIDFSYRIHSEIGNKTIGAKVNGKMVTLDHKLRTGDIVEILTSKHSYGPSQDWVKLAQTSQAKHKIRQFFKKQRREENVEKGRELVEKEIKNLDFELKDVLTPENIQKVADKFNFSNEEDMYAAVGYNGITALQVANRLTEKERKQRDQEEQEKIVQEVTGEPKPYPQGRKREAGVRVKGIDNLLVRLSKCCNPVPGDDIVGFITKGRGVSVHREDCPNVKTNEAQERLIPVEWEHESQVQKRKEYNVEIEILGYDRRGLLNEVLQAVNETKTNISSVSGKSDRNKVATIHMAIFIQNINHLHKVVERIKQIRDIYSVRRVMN

[3] = target: Rel^NTD (B. subtilis Rel NTD, 1-373) (Bacillus subtilis, UniProt O54408); experiment: isothermal titration calorimetry; type: binding
Chain of Rel^NTD (B. subtilis Rel NTD, 1-373) (O54408 1-373): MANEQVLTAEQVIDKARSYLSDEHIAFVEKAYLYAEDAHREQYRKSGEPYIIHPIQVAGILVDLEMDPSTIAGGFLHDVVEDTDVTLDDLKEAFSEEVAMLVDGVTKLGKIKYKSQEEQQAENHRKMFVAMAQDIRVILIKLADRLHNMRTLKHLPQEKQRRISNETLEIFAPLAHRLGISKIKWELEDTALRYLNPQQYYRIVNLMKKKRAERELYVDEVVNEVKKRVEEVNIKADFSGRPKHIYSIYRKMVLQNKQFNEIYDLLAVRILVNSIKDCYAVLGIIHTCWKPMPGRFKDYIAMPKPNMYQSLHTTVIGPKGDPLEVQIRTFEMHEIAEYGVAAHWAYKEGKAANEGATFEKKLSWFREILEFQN

[4] = target: T2, RelA^NTD (E. coli RelA NTD, 1-385) (Escherichia coli, UniProt P0AG20); experiment: isothermal titration calorimetry; type: binding
T2 sequence (P0AG20 1-385): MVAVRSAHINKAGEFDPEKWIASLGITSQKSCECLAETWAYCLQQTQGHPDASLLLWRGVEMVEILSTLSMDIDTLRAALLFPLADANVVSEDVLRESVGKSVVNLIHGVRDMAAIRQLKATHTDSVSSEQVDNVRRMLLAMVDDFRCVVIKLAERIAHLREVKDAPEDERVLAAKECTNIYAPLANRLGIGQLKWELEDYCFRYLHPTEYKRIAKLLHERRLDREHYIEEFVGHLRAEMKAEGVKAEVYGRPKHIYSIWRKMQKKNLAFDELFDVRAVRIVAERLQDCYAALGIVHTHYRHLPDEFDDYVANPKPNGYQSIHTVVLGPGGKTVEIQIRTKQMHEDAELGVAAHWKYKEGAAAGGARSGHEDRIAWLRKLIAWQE

Compound: Nc1nc2c(ncn2[C@@H]2O[C@H](COP(=O)(O)OP(=O)(O)O)[C@@H](O)[C@H]2O)c(=O)[nH]1 [GDP]
3H-(p)ppGpp synthesis assay, TLC and scintillation counting [1]: the ppGpp alarmone is produced in situ from 3H-GDP

Compound: Nc1nc2c(ncn2[C@@H]2O[C@H](COP(=O)(O)OP(=O)(O)OP(=O)(O)O)[C@@H](O)[C@H]2O)c(=O)[nH]1 [GTP]
3H-(p)ppGpp synthesis assay, TLC and scintillation counting [2]: B. subtilis Rel is moderately more efficient in converting GTP to pppGpp

Kd [3]: 10.6 ± 0.9 µM | Kd [4]: 6.9 ± 0.9 µM
Compound: Nc1nc2c(ncn2[C@@H]2O[C@H](COP(=O)(O)OP(=O)(O)OP(=O)(O)O)[C@@H](OP(=O)(O)OP(=O)(O)O)[C@H]2O)c(=O)[nH]1 [pppGpp]
